Assay results from PMC6128612, “Prodrugs for colon-restricted delivery: Design, synthesis, and in vivo evaluation of colony stimulating factor 1 receptor (CSF1R) inhibitors” (PLoS ONE, 2018).

How the values were obtained:
murine colitis = system: murine colitis; parameters: method as in earlier work; details: cited from earlier work
[1] = system: IBA1+ macrophages in the colon; test: Mouse DSS model of colitis: colon macrophages by image analysis; format: in vivo; details: 100 mg/kg QD day 7–14
Description: (§1) On day 0, super prophylactic dosing of compound 2 began on C57BL/6 female mice. […] At this time compound 3 dosing initiated. […] Statistical analyses of in-vivo pharmacodynamic and efficacy data were performed as follows. D'Agostino & Pearson normality test was first used to test data for Gaussian distribution. If all groups passed normality test, a One-way ANOVA was used with Dunnett’s multiple comparisons test to compare treatment groups to Vehicle group. If not all groups passed normality test, a Kruskal-Wallis nonparametric ANOVA was used, with Dunn’s multiple comparison test to compare treatment groups to Vehicle group. Levels of significance compared to Vehicle are annotated as follows: * = p<0.05, ** = p<0.01, *** = p<0.001, **** = p < 0.0001. Optimal number of mice per group was determined using power analysis; N = 10 mice per group at 80% power predicts statistically significant detection of ≥ ~40% reduction in colon IBA1+ and ≥ ~75% reduction in colon erosion length comparing treatment groups to Vehicle group. Naïve groups were omitted from statistical analyses.

rheumatoid arthritis = system: rheumatoid arthritis; parameters: method as in PMID 26233509; details: DMARD-refractory active RA patients; cited from earlier work
[2] = system: CD11b+ CD11c+ MHCII- nonclassical monocytes; test: Mouse DSS model of colitis: circulating non-classical monocytes by FACS; format: in vivo; details: 100 mg/kg QD day 7–14
Description: as §1

In the case of `CC1(C)CC=C(c2nc(C3CC(C)(C)OC(C)(C)C3)ccc2NC(=O)c2nc(C#N)c[nH]2)CC1` [Compound 3], the “Clinical and histopathological disease readouts” value (murine colitis) is listed as “reduction in clinical and histopathological disease readouts”, the “Depletion of macrophages (IBA1+) in the colon” value [1] is listed as 76% and the “Efficacy in Phase II trial” value (rheumatoid arthritis) is listed as “lack of efficacy”. For the same compound, the “Depletion of CD11b+ CD11c+ MHCII- nonclassical monocytes” value [2] was 94%.
